# Test results taken from patent US5677282A (Proscript, Inc., priority 1995, dated 1997).
# pKi: −log10 of the molar value. “And” between values parts separate entries of the source, which are not always exact repeats. Equal values may be shown once.
# Tests used:
# [1] = molecular target: human neutrophil collagenase (Homo sapiens, UniProt P22894); assay: Assay of human neutrophil collagenase inhibition activity; type: biochemical; settings: human neutrophil collagenase 2 nM, H-150 buffer pH 7.4; read-out: Ki(app)
# How it was run: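 Human neutrophil collagenase (2 nM) in HEPES/NaCl/CaCl2 buffer, pH 7.4, was followed by fluorescence of coumarin peptide substrate hydrolysis over about 100-200 s. Inhibitor was added stepwise until 30-70% rate reduction. Ki was calculated assuming simple competitive inhibition with substrate far below Km.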
# [2] = test system: bovine cartilage explants; assay: Bovine cartilage explant assay (35S-GAG release, rhIL-1α stimulated); type: cell-based; settings: Bos taurus, rhIL-1α 5 ng/mL, 3-4 days culture, read-out: % inhibition (concentration [μM]) of cartilage degradation
# From the text: A tissue culture assay was used to measure the ability of the compounds of the present invention to slow the degradation of the extracellular matrix by metalloproteinases. This assay measured the amount of ^35 S-glycosaminoglycan (^35 S-GAG) released from labeled bovine cartilage explants.
# Knee joints from a 1 to 3 week old calf were obtained immediately after sacrifice from the Abattoir and then transported on ice. The intact joints were washed well with tap water and soaked in 50% (v/v) Povidine iodine solution, obtained from Burre National, Inc., Baltimore, Md. All subsequent steps were performed in a laminar flow tissue culture hood using standard sterile technique. The joint was immobilized in a shank holder and the joint capsule was cut open to expose the articular cartilage. Cartilage explant plugs, approximately 15 mg wet weight, were removed from the flat articulating surfaces in the lower-most region of the knee joint using a sterile steel cork-borer and collected in a 250 mL roller bottle containing about 100 mL fresh Delbecco's minimum essential medium (DMEM), obtained from Gibco BRC, Life Technologies, Gaithersburg, Md., containing 4.5 g/l (D)-glucose and (L)-glutamine, without sodium pyruvate. The fresh media also contained enough Hepes buffer and sodium bicarbonate such that the pH was about 7.4. The media was then further supplemented just before use with 100 units Penicillin, 100 μg Streptomycin, and 50 μg (L)-ascorbic acid per mL of medium.
# Once collected, the explant plugs were washed four times with 50 mL fresh DMEM. The plugs were then placed in the incubator for a minimum of 1 hour to equilibrate, before proceeding to make disks from the articulating surface of each plug. A 1 mm thick disk was sliced from individual plugs from the end that was the articulating surface of the joint. The plug was held steady in the sterile template (4 mm diameter×1.5 mm deep) using sterile forceps. A scalpel blade was used to carefully slice off the disk. Only the superficial articulating surface responded well in culture.
# Individual disks obtained were transferred to a tissue culture flask containing about 100 mL fresh media. The flask containing the disks was placed in an incubator at 37° C. (with 5% CO2, 95% air) and allowed to equilibrate overnight and at least one additional day before labeling. When ready to label, the old media was replaced with 50 mL fresh media containing about 500 μCi ^35 S-Sodium Sulfate. The plugs were labeled in bulk for about 48 hours. The next morning, the "hot" media was removed and replaced with fresh "cold" media. The disks were again allowed to equilibrate overnight before being used for actual experiments.
# The media in which the disks were stored was changed immediately prior to performing the assay. The disks were then returned to the incubator until the test media and the two control media had been prepared. The test media consisted of the desired concentration of a compound being tested for its ability to inhibit extracellular matrix degradation and concomitant recombinant human Interleukin rhIL-1α (5 ng/mL) in fresh DMEM solution. The control media were identical to the test media, except that the first control media lacked rhIL-1α and the second control media lacked the test compound. 250 μL of each of the test and control media were transferred to separate 96-well TC plates. Flamed forceps were used to transfer a disk from the incubator to each 96-well TC plates that had been filled with either the test media or one of the two control media.
# The TC plates were then placed in the incubator and cultured for 3-4 days (initial incubation with rhIL-1α alpha takes at least 3 days to stimulate endogenous metalloproteinases). A 50 μL aliquot of media from each TC plate was saved and counted. The rest of the media was removed with a suction device.
# The cartilage disks from each TC plate were also saved for counting. […]
# 92 kD gelatinase = 92 kD gelatinase (Homo sapiens, UniProt P14780); assay: Assay of 92 KD gelatinase inhibition activity; type: biochemical; settings: 92KD gelatinase 25 pM, H-150 buffer pH 7.4; read-out: Ki(app)
# How it was run: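 Pro-92 kD gelatinase activated with 1 mM p-aminophenyl mercuric acetate, 24 h at 37 °C. Assay: 25 pM enzyme in H-150 buffer pH 7.4 with coumarin peptide substrate; hydrolysis rate followed by fluorescence over 100-200 s. Inhibitor titrated in until 30-70% inhibition; Ki calculated assuming simple competitive inhibition with substrate well below Km.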
# human neutrophil collagenase, sequence (P22894 101-467): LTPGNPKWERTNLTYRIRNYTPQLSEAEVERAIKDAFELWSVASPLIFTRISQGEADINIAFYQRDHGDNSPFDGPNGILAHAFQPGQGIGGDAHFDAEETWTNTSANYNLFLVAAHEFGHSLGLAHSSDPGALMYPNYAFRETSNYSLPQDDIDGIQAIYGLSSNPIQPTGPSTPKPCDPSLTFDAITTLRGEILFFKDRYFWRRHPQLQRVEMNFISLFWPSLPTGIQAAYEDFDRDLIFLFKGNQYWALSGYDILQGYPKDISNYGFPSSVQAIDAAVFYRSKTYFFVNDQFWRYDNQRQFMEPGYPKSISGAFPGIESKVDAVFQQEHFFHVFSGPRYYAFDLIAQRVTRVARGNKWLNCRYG
# 92 kD gelatinase, sequence (P14780 107-707): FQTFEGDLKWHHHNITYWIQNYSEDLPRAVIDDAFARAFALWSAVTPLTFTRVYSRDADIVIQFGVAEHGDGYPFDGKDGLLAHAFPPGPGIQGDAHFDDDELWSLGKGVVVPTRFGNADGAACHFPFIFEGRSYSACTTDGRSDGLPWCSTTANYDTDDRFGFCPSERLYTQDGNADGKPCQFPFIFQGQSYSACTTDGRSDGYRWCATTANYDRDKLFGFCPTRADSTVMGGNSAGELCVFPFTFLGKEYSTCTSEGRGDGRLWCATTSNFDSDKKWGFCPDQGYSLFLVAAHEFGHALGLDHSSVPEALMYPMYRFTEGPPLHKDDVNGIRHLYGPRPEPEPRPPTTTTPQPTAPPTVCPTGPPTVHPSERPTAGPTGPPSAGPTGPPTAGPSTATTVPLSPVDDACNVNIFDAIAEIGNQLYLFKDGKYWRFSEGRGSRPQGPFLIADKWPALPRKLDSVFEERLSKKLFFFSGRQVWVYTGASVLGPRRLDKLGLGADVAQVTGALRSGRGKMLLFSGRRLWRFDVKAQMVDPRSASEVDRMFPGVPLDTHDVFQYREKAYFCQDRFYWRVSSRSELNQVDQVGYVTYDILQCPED
SMILES,pKi [1],inhibition at 25 µM ([2]; 25 μM compound) [%],pKi (92 kD gelatinase),inhibition at 50 µM ([2]; 50 μM compound) [%],inhibition at 10 µM ([2]; 10 μM compound) [%]
O=C(N[C@@H](Cc1ccc(OCc2ccccc2)cc1)C(=O)N[C@H](C(=O)Nc1n[nH]c(=S)s1)c1ccccc1)OCc1ccccc1,8.80,20,–,–,–
"CC(C)C[C@H](NC(=O)[C@H](Cc1ccccc1)NC(=O)OCc1ccccc1)C(=O)Nc1n[nH]c(=S)s1 [5-(N-benzyloxycarbonyl-phenylalanyl-leucylamino)-1,3,4-thiadiazole-2-thione]",–,–,8.64,33,–
"CC(C)[C@H](NC(=O)[C@H](Cc1ccccc1)NC(=O)OCc1ccccc1)C(=O)Nc1n[nH]c(=S)s1 [5-(N-benzyloxycarbonyl-phenylalanyl-valylamino)-1,3,4-thiadiazole-2-thione]",8.32 and 8.11,–,8.82,–,40
